Experimental data taken from ChEMBL document CHEMBL5550189, “Discovery of GS-7682, a Novel 4'-Cyano-Modified C-Nucleoside Prodrug with Broad Activity against Pneumo- and Picornaviruses and Efficacy in RSV-Infected African Green Monkeys” (J Med Chem, 2024).

How the values were obtained:
[1] = test system: enterovirus D68; assay: Anti-viral activity against EV-D68 (18952) infected in human RD cells by MTS assay; assay type: functional, organism-based; settings: Enterovirus D, 18952, RD
[2] = test system: Enterovirus A71; assay: Anti-viral activity against EV-71 (H) infected in human RD cells by MTS assay; assay type: functional, organism-based; settings: Enterovirus A
[3] = test system: Respiratory syncytial virus; assay: Antiviral activity against RSV A2 infected in Normal human bronchial epithelial cells incubated for 3 days by ONE-Glo luciferase assay; assay type: functional, organism-based; settings: A2, Epithelial cell, 72 h
[4] = test system: Respiratory syncytial virus; assay: Antiviral activity against RSV A2 infected in human HEp-2 cells incubated for 4 days by Cell Titer Glo assay; assay type: functional, organism-based; settings: A2, HEp-2, 96 h
[5] = Cytotoxicity against human Hep-2 cells incubated for 4 to 5 days by Cell Titer Glo assay; assay type: toxicity, cell-based; settings: time 4-5 day
[6] = Cytotoxicity against human MT4 cells incubated for 5 days by Cell Titer Glo assay; assay type: toxicity, cell-based; settings: time 5 day
[7] = Distribution coefficient, log D of compound measured after 30 mins by HPLC/UV analysis; assay type: physicochemical; settings: octanol/water
[8] = Prodrug conversion in Normal human bronchial epithelial cells assessed as ((2R,3S,4R,5S)-5-(4-aminopyrrolo[2,1-f][1,2,4]triazin-7-yl)-2-cyano-3,4-dihydroxytetrahydrofuran-2-yl)methyl tetrahydrogen triphosphate formation measured per million cells at 10 uM incubated for 2 hrs by LC-MS/MS analysis; assay type: ADME, cell-based; settings: epithelial cell
[9] = Inhibition of RSV ribonucleoprotein complex in presence of [alpha-32P]ATP by Phosphor imaging analysis; design: species or system Respiratory syncytial virus
[10] = molecular target: T1, DNA-directed RNA polymerase, mitochondrial (Homo sapiens, UniProt O00411); assay: Inhibition of recombinant human POLRMT assessed as single-nucleotide incorporation rate at 500 uM measured for 60 mins in presence of ATP by imaging analysis relative to control; design: scale not given: the % may be the effect or the level left
T1 sequence (O00411 whole entry): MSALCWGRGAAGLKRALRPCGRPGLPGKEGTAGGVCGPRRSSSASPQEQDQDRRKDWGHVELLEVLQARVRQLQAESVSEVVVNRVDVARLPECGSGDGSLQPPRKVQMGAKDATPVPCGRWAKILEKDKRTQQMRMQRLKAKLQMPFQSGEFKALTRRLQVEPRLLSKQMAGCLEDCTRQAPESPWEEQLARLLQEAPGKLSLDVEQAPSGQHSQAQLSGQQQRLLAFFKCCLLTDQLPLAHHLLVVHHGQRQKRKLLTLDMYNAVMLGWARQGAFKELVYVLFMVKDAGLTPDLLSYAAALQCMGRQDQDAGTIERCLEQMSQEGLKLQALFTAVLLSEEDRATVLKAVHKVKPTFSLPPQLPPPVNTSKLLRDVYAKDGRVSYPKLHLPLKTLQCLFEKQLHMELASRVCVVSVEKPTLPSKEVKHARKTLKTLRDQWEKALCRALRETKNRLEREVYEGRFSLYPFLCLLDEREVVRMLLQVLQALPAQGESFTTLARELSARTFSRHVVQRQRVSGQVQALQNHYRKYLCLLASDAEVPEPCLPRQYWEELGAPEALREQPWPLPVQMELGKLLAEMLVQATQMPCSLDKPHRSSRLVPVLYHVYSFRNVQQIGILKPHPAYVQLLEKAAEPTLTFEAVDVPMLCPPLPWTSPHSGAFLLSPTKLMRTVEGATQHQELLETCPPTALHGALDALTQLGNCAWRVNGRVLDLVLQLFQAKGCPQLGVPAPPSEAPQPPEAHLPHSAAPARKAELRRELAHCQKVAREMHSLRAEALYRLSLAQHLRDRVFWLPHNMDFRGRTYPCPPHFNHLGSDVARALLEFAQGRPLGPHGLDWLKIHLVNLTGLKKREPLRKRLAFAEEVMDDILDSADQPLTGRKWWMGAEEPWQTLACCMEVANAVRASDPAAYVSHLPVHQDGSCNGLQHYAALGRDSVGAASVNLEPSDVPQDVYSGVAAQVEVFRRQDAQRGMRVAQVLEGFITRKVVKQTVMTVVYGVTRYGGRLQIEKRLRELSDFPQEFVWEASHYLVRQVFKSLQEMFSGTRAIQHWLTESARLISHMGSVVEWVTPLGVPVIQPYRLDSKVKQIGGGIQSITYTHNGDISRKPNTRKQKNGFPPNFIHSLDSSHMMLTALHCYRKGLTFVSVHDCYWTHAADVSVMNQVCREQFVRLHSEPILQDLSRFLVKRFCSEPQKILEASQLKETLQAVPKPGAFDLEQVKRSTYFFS

[11] = test system: Human metapneumovirus; assay: Anti-viral activity against hMPV CAN99-81 (A1 genotype) infected in rhesus monkey LLC-MK2 cells incubated for 3 to 5 days; assay type: functional, organism-based
[12] = molecular target: T1, DNA-directed RNA polymerase, mitochondrial; assay: Inhibition of recombinant human POLRMT by Phosphor imaging analysis
[13] = organism: Homo sapiens; assay: Inhibition of recombinant human DNA Pol-gamma assessed as single-nucleotide incorporation rate at 50 uM measured for 60 mins in presence of dATP by imaging analysis relative to control; design: scale not given: the % may be the effect or the level left
[14] = organism: Homo sapiens; assay: Inhibition of recombinant human DNA Pol-alpha assessed as single-nucleotide incorporation rate at 50 uM measured for 60 mins in presence of dATP by imaging analysis relative to control; design: scale not given: the % may be the effect or the level left
[15] = test system: Influenza A virus; assay: Anti-viral activity against Influenza A (H1N1) infected in MDCK cells by MTS assay; assay type: functional, organism-based; settings: H

Compound | EC50 [3] [µM] | EC50 [4] [µM] | CC50 [5] [µM] | CC50 at 120 h [6] [µM] | logD at 0.5 h [7] | other results
CC(C)S(=O)(=O)n1c(N)nc2ccc(/C(=N/O)c3ccccc3)cc21 [ENVIROXIME] |  |  |  |  |  | EC50 [1]: 0.22 µM; EC50 [2]: 0.02 µM
CC(C)OC(=O)[C@H](C)N[P@](=O)(OC[C@@]1(C#N)O[C@@H](c2ccc3c(N)ncnn23)[C@H](O)[C@@H]1O)Oc1ccccc1 | 0.933 | 0.391 | > 50 | > 57 | 1.3 | 
C[C@H](N[P@](=O)(OC[C@@]1(C#N)O[C@@H](c2ccc3c(N)ncnn23)[C@H](O)[C@@H]1O)Oc1ccccc1)C(=O)OC1CCCCC1 | 0.141 | 0.148 | > 100 | > 50 | 2.2 | Drug metabolism [8]: 13 pM
CCC(=O)O[C@H]1[C@H](c2ccc3c(N)ncnn23)O[C@](C#N)(CO[P@@](=O)(N[C@@H](C)C(=O)OC2CCCCC2)Oc2ccccc2)[C@H]1OC(=O)CC | 0.041 | 0.06 | 33.9 | 17.1 | 3.5 | 
Nc1ncnn2c([C@@H]3O[C@@](CO)(CCl)[C@@H](O)[C@H]3O)ccc12 | > 25 | > 50 | > 38 | > 50 |  | 
CC(C)C(=O)O[C@H]1[C@H](c2ccc3c(N)ncnn23)O[C@](C#N)(CO[P@@](=O)(N[C@@H](C)C(=O)OC2CCCCC2)Oc2ccccc2)[C@H]1OC(=O)C(C)C | 0.017 | 0.06 | 18.1 | 8.7 | 4 | Drug metabolism [8]: 170 pM
COC(=O)C(C)N[P@](=O)(OC[C@@]1(C#N)O[C@@H](c2ccc3c(N)ncnn23)[C@H](OC(C)=O)[C@@H]1OC(C)=O)Oc1ccccc1 (some centres undefined) | 0.051 | 0.127 | > 42 | 10.6 | 2 | 
Nc1ncnn2c([C@@H]3O[C@](CCl)(COP(=O)(O)OP(=O)(O)OP(=O)(O)O)[C@@H](O)[C@H]3O)ccc12 |  |  |  |  |  | IC50 [9]: 1.1 µM; Activity [10]: 0.1%
C=C[C@]1(CO)O[C@@H](c2ccc3c(N)ncnn23)[C@H](O)[C@@H]1O | > 50 | > 50 | > 50 | > 50 |  | 
C=C[C@]1(COP(=O)(O)OP(=O)(O)OP(=O)(O)O)O[C@@H](c2ccc3c(N)ncnn23)[C@H](O)[C@@H]1O |  |  |  |  |  | Activity [10]: 0.96%
CCC(=O)O[C@H]1[C@H](c2ccc3c(N)ncnn23)O[C@](C#N)(CO[P@@](=O)(NC(C)C(=O)OC)Oc2ccccc2)[C@H]1OC(=O)CC (some centres undefined) | 0.019 | 0.092 | 30 | 3.33 | 2.2 | Drug metabolism [8]: 384 pM
C[C@]1(COP(=O)(O)OP(=O)(O)OP(=O)(O)O)O[C@@H](c2ccc3c(N)ncnn23)[C@H](O)[C@@H]1O |  |  |  |  |  | Activity [10]: 3.2%
CCC(CC)OC(=O)[C@H](C)NP(=O)(OC[C@@]1(C#N)O[C@@H](c2ccc3c(N)ncnn23)[C@H](O)[C@@H]1O)Oc1ccccc1 (some centres undefined) | 0.054 | 0.029 | > 93 | 40.1 | 2.1 | 
CCCOC(=O)[C@H](C)N[P@](=O)(OC[C@@]1(C#N)O[C@@H](c2ccc3c(N)ncnn23)[C@H](O)[C@@H]1O)Oc1ccccc1 | 0.168 | 0.055 | > 50 | 10.3 | 1.2 | 
Nc1ncnn2c([C@@H]3O[C@H](CO)[C@@H](O)[C@H]3O)ccc12 |  |  | 0.037 | < 0.01 |  | 
CCOC(=O)[C@H](C)N[P@](=O)(OC[C@@]1(C#N)O[C@@H](c2ccc3c(N)ncnn23)[C@H](O)[C@@H]1O)Oc1ccccc1 | 0.932 | 0.095 | > 100 | 28.7 | 1.1 | 

Compound | EC50 [3] [µM] | EC50 [4] [µM] | CC50 [5] [µM] | CC50 at 120 h [6] [µM] | logD at 0.5 h [7] | other results
C[C@]1(CO)O[C@@H](c2ccc3c(N)ncnn23)[C@H](O)[C@@H]1O | > 50 | 25.3 | > 50 | > 50 |  | 
NC(=O)c1ncn([C@@H]2O[C@H](CO)[C@@H](O)[C@H]2O)n1 [RIBAVIRIN] |  |  |  |  |  | EC50 [11]: 34.8 µM
C[C@H](N[P@@](=O)(OC[C@@]1(C#N)O[C@@H](c2ccc3c(N)ncnn23)[C@H](O)[C@@H]1O)Oc1ccccc1)C(=O)OC1CCCCC1 | 0.63 | 3.11 | > 50 | > 50 |  | 
CC(=O)O[C@H]1[C@H](c2ccc3c(N)ncnn23)O[C@](C#N)(CO[P@@](=O)(N[C@@H](C)C(=O)OC2CCCCC2)Oc2ccccc2)[C@H]1OC(C)=O | 0.023 | 0.206 | > 49 | 29.8 | 2.9 | Drug metabolism [8]: 40 pM
CCCOC(=O)[C@H](C)N[P@](=O)(OC[C@@]1(C#N)O[C@@H](c2ccc3c(N)ncnn23)[C@H](OC(=O)C(C)C)[C@@H]1OC(=O)C(C)C)Oc1ccccc1 | 0.046 | 0.036 | 15.7 | 4.92 | 3.3 | Drug metabolism [8]: 402 pM
CCCOC(=O)[C@H](C)N[P@](=O)(OC[C@@]1(C#N)O[C@@H](c2ccc3c(N)ncnn23)[C@H](OC(=O)CC)[C@@H]1OC(=O)CC)Oc1ccccc1 | 0.056 | 0.041 | 27.3 | 7.65 | 2.8 | Drug metabolism [8]: 165 pM
[N-]=[N+]=N[C@]1(CO)O[C@@H](c2ccc3c(N)ncnn23)[C@H](O)[C@@H]1O | 3.59 | 2.02 | > 50 | > 50 |  | 
N#C[C@]1(CO)O[C@@H](c2ccc3c(N)ncnn23)[C@H](F)[C@@H]1O | 2.31 |  | > 100 | > 50 |  | 
[N-]=[N+]=N[C@]1(COP(=O)(O)OP(=O)(O)OP(=O)(O)O)O[C@@H](c2ccc3c(N)ncnn23)[C@H](O)[C@@H]1O |  |  |  |  |  | IC50 [9]: 0.12 µM; Activity [10]: 132%; IC50 [12]: 1 µM; Activity [13]: 0.62%; Activity [14]: 0%
N#C[C@]1(COP(=O)(O)OP(=O)(O)OP(=O)(O)O)O[C@@H](c2ccc3c(N)ncnn23)[C@H](F)[C@@H]1O |  |  |  |  |  | IC50 [9]: 0.086 µM; Activity [10]: 0.03%; IC50 [12]: 115 µM; Activity [13]: 2.3%; Activity [14]: 8.7%
N#C[C@]1(COP(=O)(O)OP(=O)(O)OP(=O)(O)O)O[C@@H](c2ccc3c(N)ncnn23)[C@H](O)[C@@H]1O |  |  |  |  |  | IC50 [9]: 0.05 µM; Activity [10]: 0.8%; IC50 [12]: > 200 µM; Activity [13]: 0%; Activity [14]: 0%
N#C[C@]1(CO)O[C@@H](c2ccc3c(N)ncnn23)[C@H](O)[C@@H]1O | 6.23 | 6.83 | > 50 | > 50 |  | 
NC(=O)c1nc(F)cnc1O [FAVIPIRAVIR] |  |  |  |  |  | EC50 [15]: 5.87 µM
C[C@H](N[P@](=O)(OC[C@@]1(C#N)O[C@@H](c2ccc3c(N)ncnn23)[C@H](O)[C@@H]1O)Oc1ccccc1)C(=O)OC1CCOCC1 | > 4.3 | 1.49 | > 50 | > 57 | 1.3 | 
COC(=O)[C@H](C)N[P@](=O)(OC[C@@]1(C#N)O[C@@H](c2ccc3c(N)ncnn23)[C@H](O)[C@@H]1O)Oc1ccccc1 | 0.295 | 0.122 | > 50 | > 38 | 1.1 | Drug metabolism [8]: 15 pM
